# Results as given in PubChem BioAssay AID1963448 (Molecular Pharmacology Branch, DTP, NCI, 2024).
# Tested on: 616215-338-R-J1-PDC complex spheroid growth, % test/control
# Assay: Anticancer human tumor 616215-338-R-J1-PDC patient-derived colon adenocarcinoma cell line growth inhibition [Asc]
# Conditions: for IC50: curve of first compound; for viability, T/C: stronger effect = lower value
# Method in brief: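 Concentration series start at each agent's clinical Cmax, or at 10 microM when none is established, and drop in half-log steps; agents are applied alone or together to complex spheroids built with HUVEC and hMSC.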
# 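Note: spheroids exposed to agents for seven days before readout.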
# 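Throughout, for viability, T/C: 100% = DMSO vehicle control viability.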
structure (smiles),measurement,setting,value
O=C(c1ccc(F)c(F)c1Nc1ccc(I)cc1F)N1CC(O)([C@@H]2CCCCN2)C1 + CCN1C(C(=O)NC23CCC(C(=O)O)(CC2)CC3)C(c2cccc(Cl)c2F)C2(C(=O)Nc3cc(Cl)ccc32)C12CCCCC2,IC50,second compound 0.03 µM,70 nM
same,IC50,second compound 0.0949 µM,52.9 nM
same,IC50,second compound 0.3 µM,16.4 nM
same,IC50,second compound 0.949 µM,5.81 nM
same,IC50,second compound 3 µM,< 3.16 nM
same,"viability, T/C","second compound 0.03 µM, first compound 0.00316 µM",89.9%
same,"viability, T/C","second compound 0.03 µM, first compound 0.01 µM",88.6%
same,"viability, T/C","second compound 0.03 µM, first compound 0.0316 µM",90.1%
same,"viability, T/C","second compound 0.03 µM, first compound 0.1 µM",32.3%
same,"viability, T/C","second compound 0.03 µM, first compound 0.316 µM",0.26%
same,"viability, T/C","second compound 0.03 µM, first compound 1 µM",0.38%
same,"viability, T/C","second compound 0.0949 µM, first compound 0.00316 µM",93.8%
same,"viability, T/C","second compound 0.0949 µM, first compound 0.01 µM",93.6%
same,"viability, T/C","second compound 0.0949 µM, first compound 0.0316 µM",74.5%
same,"viability, T/C","second compound 0.0949 µM, first compound 0.1 µM",19.6%
same,"viability, T/C","second compound 0.0949 µM, first compound 0.316 µM",0.23%
same,"viability, T/C","second compound 0.0949 µM, first compound 1 µM",0.37%
same,"viability, T/C","second compound 0.3 µM, first compound 0.00316 µM",59.8%
same,"viability, T/C","second compound 0.3 µM, first compound 0.01 µM",57.7%
same,"viability, T/C","second compound 0.3 µM, first compound 0.0316 µM",38.8%
same,"viability, T/C","second compound 0.3 µM, first compound 0.1 µM",3%
same,"viability, T/C","second compound 0.3 µM, first compound 0.316 µM",1.18%
same,"viability, T/C","second compound 0.3 µM, first compound 1 µM",1.93%
same,"viability, T/C","second compound 0.949 µM, first compound 0.00316 µM",55.5%
same,"viability, T/C","second compound 0.949 µM, first compound 0.01 µM",44.2%
same,"viability, T/C","second compound 0.949 µM, first compound 0.0316 µM",23.3%
same,"viability, T/C","second compound 0.949 µM, first compound 0.1 µM",2.29%
same,"viability, T/C","second compound 0.949 µM, first compound 0.316 µM",1.21%
same,"viability, T/C","second compound 0.949 µM, first compound 1 µM",3.73%
same,"viability, T/C","second compound 3 µM, first compound 0.00316 µM",40.3%
same,"viability, T/C","second compound 3 µM, first compound 0.01 µM",36%
same,"viability, T/C","second compound 3 µM, first compound 0.0316 µM",3.79%
same,"viability, T/C","second compound 3 µM, first compound 0.1 µM",0.28%
same,"viability, T/C","second compound 3 µM, first compound 0.316 µM",0.56%
same,"viability, T/C","second compound 3 µM, first compound 1 µM",2.69%
C=C(F)C(=O)N1CCN(c2nc(OCC3CCCN3C)nc3c2CCN(c2cccc4cccc(Cl)c24)C3)CC1CC#N (configuration not stated) + CNC(C)C(=O)NC1CN(S(=O)(=O)c2cccc(S(=O)(=O)N3CCC4CCC(C(=O)NC(c5ccccc5)c5ccccc5)N4C(=O)C(NC(=O)C(C)NC)C3)c2)CCC2CCC(C(=O)NC(c3ccccc3)c3ccccc3)N2C1=O,IC50,second compound 0.00316 µM,175 nM
same,IC50,second compound 0.01 µM,162 nM
same,IC50,second compound 0.0316 µM,155 nM
same,IC50,second compound 0.1 µM,52.6 nM
same,IC50,second compound 0.316 µM,243 nM
same,IC50,second compound 1 µM,131 nM
same,"viability, T/C","second compound 0.00316 µM, first compound 0.0316 µM",61%
same,"viability, T/C","second compound 0.00316 µM, first compound 0.1 µM",53.5%
same,"viability, T/C","second compound 0.00316 µM, first compound 0.316 µM",43.7%
same,"viability, T/C","second compound 0.00316 µM, first compound 1 µM",23.7%
same,"viability, T/C","second compound 0.00316 µM, first compound 3.16 µM",1.09%
same,"viability, T/C","second compound 0.00316 µM, first compound 10 µM",0.18%
same,"viability, T/C","second compound 0.01 µM, first compound 0.0316 µM",64.8%
same,"viability, T/C","second compound 0.01 µM, first compound 0.1 µM",53.1%
same,"viability, T/C","second compound 0.01 µM, first compound 0.316 µM",41.4%
same,"viability, T/C","second compound 0.01 µM, first compound 1 µM",26.3%
same,"viability, T/C","second compound 0.01 µM, first compound 3.16 µM",0.82%
same,"viability, T/C","second compound 0.01 µM, first compound 10 µM",2.38%
same,"viability, T/C","second compound 0.0316 µM, first compound 0.0316 µM",65.3%
same,"viability, T/C","second compound 0.0316 µM, first compound 0.1 µM",43.8%
same,"viability, T/C","second compound 0.0316 µM, first compound 0.316 µM",47.5%
same,"viability, T/C","second compound 0.0316 µM, first compound 1 µM",21.2%
same,"viability, T/C","second compound 0.0316 µM, first compound 3.16 µM",0.88%
same,"viability, T/C","second compound 0.0316 µM, first compound 10 µM",0.16%
same,"viability, T/C","second compound 0.1 µM, first compound 0.0316 µM",54.9%
same,"viability, T/C","second compound 0.1 µM, first compound 0.1 µM",43.8%
same,"viability, T/C","second compound 0.1 µM, first compound 0.316 µM",39.4%
same,"viability, T/C","second compound 0.1 µM, first compound 1 µM",23.5%
same,"viability, T/C","second compound 0.1 µM, first compound 3.16 µM",0.85%
same,"viability, T/C","second compound 0.1 µM, first compound 10 µM",1.36%
same,"viability, T/C","second compound 0.316 µM, first compound 0.0316 µM",56.5%
same,"viability, T/C","second compound 0.316 µM, first compound 0.1 µM",58.4%
same,"viability, T/C","second compound 0.316 µM, first compound 0.316 µM",47.7%
same,"viability, T/C","second compound 0.316 µM, first compound 1 µM",13.9%
same,"viability, T/C","second compound 0.316 µM, first compound 3.16 µM",1.16%
same,"viability, T/C","second compound 0.316 µM, first compound 10 µM",0.18%
same,"viability, T/C","second compound 1 µM, first compound 0.0316 µM",60%
same,"viability, T/C","second compound 1 µM, first compound 0.1 µM",52%
same,"viability, T/C","second compound 1 µM, first compound 0.316 µM",38.8%
same,"viability, T/C","second compound 1 µM, first compound 1 µM",15.7%
same,"viability, T/C","second compound 1 µM, first compound 3.16 µM",1.42%
same,"viability, T/C","second compound 1 µM, first compound 10 µM",0.21%
